Reference: article PMC11602988 (The Journal of Biological Chemistry, 2024)
Entries after “also recorded” stand apart in the source; their conditions may differ.

Key:
[1] = target: T1, OCT1 WT (Homo sapiens, UniProt O15245); assay: Uptake screening (transport ratio over empty vector), HEK293 cells overexpressing OCT1 WT; format: cell-based; design: expressed in transfected cells;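 further: intracellular substrate levels quantified by HPLC–tandem mass spectrometry after uptake in HBSS+ buffer at 37 °C, stable Flp-In HEK293 lines, fold change versus empty vector–transfected cells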
T1 sequence (O15245 1-554): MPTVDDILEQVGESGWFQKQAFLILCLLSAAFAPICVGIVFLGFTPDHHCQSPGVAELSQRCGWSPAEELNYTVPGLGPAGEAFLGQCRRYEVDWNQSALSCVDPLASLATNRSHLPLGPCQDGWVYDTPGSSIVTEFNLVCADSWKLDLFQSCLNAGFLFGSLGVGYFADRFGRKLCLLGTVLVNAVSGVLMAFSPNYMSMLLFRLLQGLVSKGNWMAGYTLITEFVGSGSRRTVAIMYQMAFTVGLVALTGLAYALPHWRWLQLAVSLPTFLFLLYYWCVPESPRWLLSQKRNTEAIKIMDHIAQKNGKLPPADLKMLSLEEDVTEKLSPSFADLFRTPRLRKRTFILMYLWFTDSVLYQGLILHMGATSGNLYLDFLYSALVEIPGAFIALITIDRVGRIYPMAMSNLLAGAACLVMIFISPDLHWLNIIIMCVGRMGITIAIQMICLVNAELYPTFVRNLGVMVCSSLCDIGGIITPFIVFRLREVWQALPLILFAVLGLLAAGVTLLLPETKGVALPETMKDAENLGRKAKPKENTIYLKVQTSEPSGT
Procedure: (§1) All experiments were carried out using transporter-overexpressing HEK293 cells. […] Cells were cultivated in Dulbecco’s Modified Eagle’s medium supplemented with 10% fetal calf serum, 100 U/ml penicillin, and 100 μg/ml streptomycin. Cells were passaged twice a week and kept in culture for no longer than 30 passages.
(§2) For uptake studies, 300,000 HEK293 cells were plated in each well of 24-well plates precoated with poly-D-lysine 48 prior to the experiment. On the day of the experiment, cells were washed once with prewarmed to 37 °C HBSS+ (Hank’s balanced salt solution supplemented with 10 mM Hepes, both Sigma-Aldrich). […] Uptake was stopped by adding ice-cold HBSS+ and cells were washed twice with ice-cold buffer before cell lysis was done using 80% acetonitrile containing an appropriate internal standard for eventual mass spectrometry. Relative quantification was done by comparison of transporter-overexpressing cells to empty vector–transfected controls. For uptake kinetic experiments, cells were incubated with increasing concentrations of substrate dissolved in HBSS+. Absolute quantification was done later by comparison to a standard curve in lysis buffer with known concentration.
(§3) Intracellular drug concentrations were detected and quantified by HPLC coupled to mass spectrometry. […] Substance-specific conditions were used to adjust the retention times of the analytes.
(§4) Transport ratios were determined as relative fold-increase of the uptake in transporter-overexpressing cells over empty vector–transfected control cells. For transport kinetic experiments, absolute substrate quantification was done by signal comparison to a standard curve with known concentrations. Net uptake was then determined by subtracting the uptake into empty vector–transfected cells from transporter-overexpressing cells. […] Vmax defines the maximum transport velocity, Km refers to the substrate concentration required to reach half vmax. The intrinsic clearance Clint is the ratio of vmax over Km.

[2] = target: T2, OCT1 Phe244Ala variant (Homo sapiens, UniProt O15245, F244A); assay: Uptake screening (transport ratio over empty vector), HEK293 cells overexpressing OCT1 Phe244Ala variant; format: cell-based; design: expressed in transfected cells; conditions: for relative_Phe244Ala_uptake_in%: Phe244Ala uptake relative to OCT1 WT; for Transport activity of Phe244Ala in % of WT activity: 2.5 μM substrate, 2 min, Phe244Ala uptake relative to WT;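 on all read-outs here: stably transfected HEK293 cells, intracellular substrate quantified by HPLC-tandem mass spectrometry in cell lysates, uptake in HBSS+ buffer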
T2 sequence (O15245 1-554 F244A): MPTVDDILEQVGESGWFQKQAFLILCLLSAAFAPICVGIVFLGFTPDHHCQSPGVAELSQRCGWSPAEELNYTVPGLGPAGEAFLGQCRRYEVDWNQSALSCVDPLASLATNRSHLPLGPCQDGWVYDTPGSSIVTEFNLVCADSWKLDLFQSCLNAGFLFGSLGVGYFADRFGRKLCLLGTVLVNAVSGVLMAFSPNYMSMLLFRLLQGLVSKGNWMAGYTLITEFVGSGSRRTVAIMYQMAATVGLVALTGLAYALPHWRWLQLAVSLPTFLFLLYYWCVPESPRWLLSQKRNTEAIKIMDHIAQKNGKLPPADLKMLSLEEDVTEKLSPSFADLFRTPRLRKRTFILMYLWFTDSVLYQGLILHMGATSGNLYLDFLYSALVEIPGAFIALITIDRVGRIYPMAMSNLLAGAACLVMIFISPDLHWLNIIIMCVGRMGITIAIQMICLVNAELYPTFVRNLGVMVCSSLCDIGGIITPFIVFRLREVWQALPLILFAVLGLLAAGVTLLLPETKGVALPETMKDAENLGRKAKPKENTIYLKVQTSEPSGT
Procedure: as §1, §2, §3, §4

[3] = target: T2, OCT1 Phe244Ala variant; assay: Inhibition of (R,S)-ethambutol uptake, HEK293 cells overexpressing OCT1 Phe244Ala; conditions: 20 μM inhibitor, 2 μM (R,S)-ethambutol, 5 min
Procedure: (§5) For cellular inhibition experiments, 300,000 HEK293 cells were plated in poly-D-lysine precoated 24 well plates 48 h in advance. To study transporter inhibition, cells were incubated with 2 μM (R,S)-ethambutol with and without 20 μM inhibitor both dissolved in HBSS+.
(§6) In inhibition experiments, transporter activity was calculated as it follows: %OCT1activity=[Substrateinhibited]−[SubstrateEV]/[Substratenon−inhibited]−[SubstrateEV]
(§7) Substrateinhibited is the uptake of ethambutol into transporter-overexpressing cells in presence of an inhibitor, whereas substratenon-inhibited refers to the ethambutol uptake without coincubation with an inhibitor. SubstrateEV refers to the ethambutol uptake into empty vector–transfected control cells. Percent inhibition values where then calculated as in the following: %transporterinhibition=100%−transporteractivity In concentration-dependent inhibition experiments, the transporter activity was plotted against the log10 of inhibitor concentrations. The data was then analyzed by the following formula to determine IC50 values: Y=Ymin+(Ymax−Ymin)/1+10^log10(IC50−x)∙hillslope
(§8) Y describes the transporter activity, whereas Ymax is to the maximum and Ymin to the minimal transporter activity. X refers to the log10 of inhibitor concentrations, IC50 characterizes the half-maximal inhibitory concentration, and hill slope describes the slope factor.

[4] = target: T1, OCT1 WT; assay: cell-based
Procedure: as §5, §6, §7, §8

[5] = target: T2, OCT1 Phe244Ala variant; assay: cell-based
Procedure: as §5, §6, §7, §8

[6] = target: T2, OCT1 Phe244Ala variant; assay: Stereoselective cell uptake of racemic substrates (chiral LC-MS/MS), OCT1 Phe244Ala variant; conditions: 2.5 μM racemic substance, 2 min
Procedure: Intracellular concentrations were quantified after chiral chromatography by mass spectrometry and are presented as mean ± SD of three independent experiments. […] Whenever the absolute steric conformation of the enantiomers was unknown, the enantiomers were termed according to their elution as enantiomer-1 (E1) and enantiomer-2 (E2).
as §2
Chromatography was carried out with in reversed-phase mode with an aqueous mobile phase buffered with ammonium acetate and supplemented with 2-propanol or methanol as organic modifiers (Table S2). Order of elution of enantiomers was obtained either by reference literature ([28], [29], [30], [31], [32], [33]) or by injecting single enantiomers. Whenever there was no information available, the first eluting enantiomer was referred to as E1 and the second as E2.
as §4

[7] = target: T2, OCT1 Phe244Ala variant; conditions: cited from earlier work
[8] = target: T1, OCT1 WT; assay: Concentration-dependent uptake kinetics, HEK293 cells overexpressing OCT1 WT; conditions: for Clint: ratio of vmax over Km
Procedure: as §1, §2, §3, §4

[9] = target: T2, OCT1 Phe244Ala variant; assay: Concentration-dependent uptake kinetics, HEK293 cells overexpressing OCT1 Phe244Ala; conditions: for Clint: ratio of vmax over Km;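 on all read-outs here: cells exposed to rising substrate concentrations in buffer, intracellular drug measured by HPLC-tandem mass spectrometry, quantified against a standard curve, uptake referenced to empty vector-transfected HEK293 controls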
Procedure: as §1, §2, §3, §4

[10] = substrate: CC(=O)OC(C)C[N+](C)(C)C; assay: cells, lysate or membranes; conditions: other: OCT1 WT, HEK293, 2 min incubation, net uptake, mean ± SD of three experiments
[11] = substrate: CC(C)(C)NCC(O)COc1cccc2c1CCC(=O)N2; assay: cells, lysate or membranes; conditions: other: OCT1 WT, HEK293, 2 min incubation, net uptake, mean ± SD of three experiments
[12] = substrate: CC(C)[N+](C)(CCOC(=O)C1c2ccccc2Oc2ccccc21)C(C)C; assay: cells, lysate or membranes; conditions: other: OCT1 WT, HEK293, 2 min incubation, net uptake, mean ± SD of three experiments
[13] = substrate: CC(CCc1ccc(O)cc1)NCCc1ccc(O)c(O)c1; assay: cells, lysate or membranes; conditions: other: OCT1 WT, HEK293, 2 min incubation, net uptake, mean ± SD of three experiments
Procedure: as §1, §2, §3, §4

[14] = substrate: CCN1CCCC1CNC(=O)c1cc(S(N)(=O)=O)ccc1OC; assay: cells, lysate or membranes; conditions: other: OCT1 WT, HEK293, 2 min incubation, net uptake, mean ± SD of three experiments
[15] = substrate: CN(C)CCc1c[nH]c2ccc(C[C@H]3COC(=O)N3)cc12; assay: cells, lysate or membranes; conditions: other: OCT1 WT, HEK293, 2 min incubation, net uptake, mean ± SD of three experiments
[16] = substrate: CN1CCN(CC(=O)N2c3ccccc3C(=O)Nc3cccnc32)CC1; assay: cells, lysate or membranes; conditions: other: OCT1 WT, HEK293, 2 min incubation, net uptake, mean ± SD of three experiments
[17] = substrate: COc1cc(CCN)cc(OC)c1OC; assay: cells, lysate or membranes; conditions: other: OCT1 WT, HEK293, 2 min incubation, net uptake, mean ± SD of three experiments
[18] = substrate: Cc1ncc(C[n+]2csc(CCO)c2C)c(N)n1; assay: cells, lysate or membranes; conditions: other: OCT1 WT, HEK293, 2 min incubation, net uptake, mean ± SD of three experiments
[19] = substrate: NC(N)=Nc1nc(CSCCC(N)=NS(N)(=O)=O)cs1; assay: cells, lysate or membranes; conditions: other: OCT1 WT, HEK293, 2 min incubation, net uptake, mean ± SD of three experiments
[20] = uptake ratio of OCT1 WT-overexpressing HEK293 cells over empty vector
[21] = uptake ratio of OCT1 Phe244Ala-overexpressing HEK293 cells over empty vector

Molecule: COc1cc(Cc2cnc(N)nc2N)cc(OC)c1OC [Trimethoprim]
- Mean_transport_ratio_WT ([1]; uptake ratio over empty vector, HEK293 cells overexpressing OCT1 WT): 3.204
- relative_Phe244Ala_uptake_in% [2]: 23.542%
- Mean_transport_ratio_Phe244Ala ([2]; uptake ratio over empty vector, HEK293 cells overexpressing OCT1 Phe244Ala): 1.519
- Inhibition of the Phe244Ala mutant compared to the WT transporter (screening) [3]: strongly reduced inhibition

Molecule: CC(Cc1ccc(O)cc1)NCC(O)c1cc(O)cc(O)c1 (stereo not drawn) [Fenoterol]
- IC50 [4]: 0.541 µM
- IC50 [5]: 5.53 µM
- Stereoselectivity of Phe244Ala variant compared to WT [6]: opposite stereoselectivities; also recorded: only one enantiomer of the racemic mixtures showed altered transport

Molecule: CN[C@@H]1CCc2[nH]c3ccc(C(N)=O)cc3c2C1 [Frovatriptan]
- Mean_transport_ratio_WT [1, 20]: 22.068
- relative_Phe244Ala_uptake_in% [2]: 43.181%
- Mean_transport_ratio_Phe244Ala [2, 21]: 10.097
- Stereoselectivity of Phe244Ala variant compared to WT [6]: opposite stereoselectivities; also recorded: only one enantiomer of the racemic mixtures showed altered transport

Molecule: CN(C)C(=N)N=C(N)N [Metformin]
- Consequence of the Phe244Ala substitution on transport [7]: complete loss of transport activity
- Mean_transport_ratio_WT [1, 20]: 6.891
- Transport activity of Phe244Ala in % of WT activity [2]: ~10%
- relative_Phe244Ala_uptake_in% [2]: 14.754%
- Mean_transport_ratio_Phe244Ala [2, 21]: 1.869
- vmax ([8]; OCT1 WT, HEK293, 2 min incubation, net uptake): 10,813 ± 2176 pmol × mg protein^−1 × min^−1
- Clint ([8]; OCT1 WT): 3.71 ± 2.82 ml × g Protein^−1 × min^−1
- Km at 2 min ([8]; human, HEK293 cells overexpressing OCT1 WT): 2910 ± 1630 µM
- vmax ([9]; OCT1 Phe244Ala, HEK293, 2 min incubation, net uptake): 4361 ± 1497 pmol × mg protein^−1 × min^−1
- Clint ([9]; OCT1 Phe244Ala): 1.54 ± 2.02 ml × g Protein^−1 × min^−1
- Km at 2 min ([9]; human, HEK293 cells overexpressing OCT1 Phe244Ala): 2830 ± 2730 µM
- Maximum transport capacity (vmax), Phe244Ala compared to WT ([9]; uptake kinetics, in words): reduced transport capacity

Molecule: COc1cc(CCN)cc(OC)c1OC [Mescaline]
- Mean_transport_ratio_WT [1, 20]: 5.297
- Transport activity of Phe244Ala in % of WT activity [2]: ~10%
- relative_Phe244Ala_uptake_in% [2]: 16.381%
- Mean_transport_ratio_Phe244Ala [2, 21]: 1.704
- Clint ([8]; OCT1 WT): 4.84 ± 2.55 ml × g Protein^−1 × min^−1
- Inhibition of the Phe244Ala mutant compared to the WT transporter (screening) [3]: strongly reduced inhibition
- Clint ([9]; OCT1 Phe244Ala): 0.91 ± 2.50 ml × g Protein^−1 × min^−1
- Km, Phe244Ala compared to WT ([9]; uptake kinetics, in words): higher apparent affinity Km and transport capacity vmax for the WT transporter than the Phe244Ala variant
- Maximum transport capacity (vmax), Phe244Ala compared to WT ([9]; uptake kinetics, in words): higher apparent affinity Km and transport capacity vmax for the WT transporter than the Phe244Ala variant

B1: OCT1 WT (Homo sapiens) (protein)
chain: MPTVDDILEQVGESGWFQKQAFLILCLLSAAFAPICVGIVFLGFTPDHHCQSPGVAELSQRCGWSPAEELNYTVPGLGPAGEAFLGQCRRYEVDWNQSALSCVDPLASLATNRSHLPLGPCQDGWVYDTPGSSIVTEFNLVCADSWKLDLFQSCLNAGFLFGSLGVGYFADRFGRKLCLLGTVLVNAVSGVLMAFSPNYMSMLLFRLLQGLVSKGNWMAGYTLITEFVGSGSRRTVAIMYQMAFTVGLVALTGLAYALPHWRWLQLAVSLPTFLFLLYYWCVPESPRWLLSQKRNTEAIKIMDHIAQKNGKLPPADLKMLSLEEDVTEKLSPSFADLFRTPRLRKRTFILMYLWFTDSVLYQGLILHMGATSGNLYLDFLYSALVEIPGAFIALITIDRVGRIYPMAMSNLLAGAACLVMIFISPDLHWLNIIIMCVGRMGITIAIQMICLVNAELYPTFVRNLGVMVCSSLCDIGGIITPFIVFRLREVWQALPLILFAVLGLLAAGVTLLLPETKGVALPETMKDAENLGRKAKPKENTIYLKVQTSEPSGT
- Km [10]: 413 ± 314 µM
- Vmax [10]: 0.00584 µmol/min/mg
- Vmax/Km [10]: 14.1 µL/min/mg
- Km [11]: 449 ± 438 µM
- Vmax [11]: 0.000453 µmol/min/mg
- Vmax/Km [11]: 1.01 µL/min/mg
- Km [12]: 1.26 ± 1.12 µM
- Vmax [12]: 0.000271 µmol/min/mg
- Vmax/Km [12]: 224 µL/min/mg
- Km [13]: 40.1 ± 57.7 µM
- Vmax [13]: 0.000122 µmol/min/mg
- Vmax/Km [13]: 3.03 µL/min/mg
- Km [14]: 89.2 ± 85.2 µM
- Km [15]: 98.5 ± 87.8 µM
- Vmax [15]: 0.00213 µmol/min/mg
- Vmax/Km [15]: 21.6 µL/min/mg
- Km [16]: 69.3 ± 103 µM
- Vmax [16]: 3e-05 µmol/min/mg
- Vmax/Km [16]: 0.43 µL/min/mg
- Km [17]: 38.2 ± 14.3 µM
- Vmax [17]: 0.000185 µmol/min/mg
- Vmax/Km [17]: 4.84 µL/min/mg
- Km [18]: 1161 ± 1029 µM
- Vmax [18]: 0.00872 µmol/min/mg
- Vmax/Km [18]: 7.51 µL/min/mg
- Km [19]: 64.7 ± 50.2 µM
- Vmax [19]: 0.00296 µmol/min/mg
- Vmax/Km [19]: 45.8 µL/min/mg
